Assay results as given in patent US8604085B2, “Bupropion hydrobromide polymorphs” (Valeant International Bermuda, priority 2008, dated 2013).
Entries after “also recorded” stand apart in the source; their conditions may differ. Structures can show the parent of a compound that is named as a salt.

How the values were obtained:
Format in all cases: physicochemical
[1] = Slurry experiments at room temperature (thermodynamic stability of crystal forms, X-ray diffraction); conditions: for Slurry Result: 7 days, room temperature, form by XRD
Method: Slurry experiments of Form I were performed at room temperature to verify if Form I is the thermodynamic crystal form. 0.050 g of Form I was suspended in 2 ml of solvent and stirred for 1 week. The sample was filtered and analyzed by X-ray diffraction. In the large majority of the experiments, Form I converts into Form II. […] By 1,4-Dioxane, a new crystal form was obtained named Form V. See Table 46 for the Form I slurries results (7 days).
Further slurry experiments of Form I were performed at room temperature using 0.5 g of powder in 10 mL of solvent to confirm the results obtained even in large scale.
0.050 g of Form I were suspended in 2 ml of solvent and stirred at room temperature for 4 weeks (30 days). The sample was filtered and analyzed by X-ray diffraction. By 1,4-Dioxane, Form V was obtained. By tetrahydrofuran, Form II and Form VII were obtained. […] See Table 47 for the Form I slurries results (30 days).
(§1) Slurry experiments of mixtures of Form I and Form II were performed at room temperature to verify their thermodynamic stability. 0.040 g of Form I+0.040 g of Form II were suspended in 4 ml of solvent and stirred for 1 week (7 days). The samples were filtered and analyzed by X-ray diffraction. By 1,4-Dioxane, Form V was obtained. […] See Table 48 for the Form I+Form II slurries results (7 days).
as §1, with “II” for “I”, “III” for “II”, “II+0.040” for “I+0.040”, “49” for “48”, “II+Form III” for “I+Form II”
as §1, with “II” for “I”, “IV” for “II”, “II+0.040” for “I+0.040”, “50” for “48”, “II+Form IV” for “I+Form II”
as §1, with “II” for “I”, “V” for “II”, “II+0.040” for “I+0.040”, “51” for “48”, “II+Form V” for “I+Form II”
as §1, with “II” for “I”, “VI” for “II”, “II+0.040” for “I+0.040”, “52” for “48”, “II+Form VI” for “I+Form II”
as §1, with “II” for “I”, “VII” for “II”, “II+0.040” for “I+0.040”, “53” for “48”, “II+Form VII” for “I+Form II”

[2] = Stability tests on bupropion hydrobromide polymorphs in humidity chamber (XRD pattern); conditions: 40° C., 85% R.H., open sample-holder
Method: Stability tests were performed on bupropion hydrobromide Form I, Form II, Form III, Form IV, Form V and Form VI. The powders were stored in a controlled atmosphere (85% R.H.) at 40° C. Form I and Form II were stored for 7 and 30 days respectively, while the other forms were stored only for 30 days. The sample was positioned on the sample-holder which was introduced, without any cover, into the humidity chamber at 40° C. The layer of the sample on the sample-holder was about 0.5 cm.
In addition, stability tests were performed on bupropion hydrobromide Form VII.

[3] = TGA and DSC characterization; conditions: for TGA (mass change): successive mass-loss steps listed per polymorph; for DSC (onset ° C.): successive thermal events listed per polymorph
Method: The PXRD diffraction patterns were obtained on X-ray powder diffraction PANalytical X′pert Pro equipped with X′Celerator, in a measurement range between 3 and 40 2 theta. All the DSC experiments were performed with a DSC 7 Perkin Elmer instrument in a temperature range between 25° C. and 250° C. with a heating rate of 10° C./min.
All the TGA experiments were conducted with a TGA 7 Perkin Elmer instrument in a temperature range between 39° C. and 310° C. with a heating rate of 10° C./min.
PXRD, DSC, TGA and IR analyses were obtained for Bupropion Hydrobromide Polymorph Form I, Form II, Form III, Form IV, Form V, Form VI, and Form VII. PXRD analyses were obtained for the amorphous form. With respect to the PXRD analyses, the Peak List is shown for Form I, Form II, Form III, Form IV, Form V, Form VI, Form VII and the amorphous form in Table 56, Table 57, Table 58, Table 59, Table 60, Table 61, Table 62 and Table 63 respectively.

[4] = Slurries in 2-propanol at room temperature, 50° C. and 80° C.; conditions: form by XRD
Method: 0.050 g of Form I were suspended in 4 ml of solvent and stirred at room temperature. for 1 week (7 days). The sample was filtered and analyzed by X-ray diffraction.
0.040 g of Form I+0.040 g of Form II were suspended in 4 ml of solvent and stirred at room temperature for 1 week (7 days). The sample was filtered and analyzed by X-ray diffraction experiments.
0.050 g of Form II were suspended in 4 ml of solvent and stirred at room temperature for 1 week (7 days). The sample was filtered and analyzed by X-ray diffraction experiments.
0.050 g of Form I were suspended in 4 ml of solvent and stirred at 50° C. for 1 Week (7 days). The sample was filtered and analyzed by X-ray diffraction experiments.
0.040 g of Form I+0.040 g of Form II were suspended in 4 ml of solvent and stirred at 50° C. for 1 week (7 days). The sample was filtered and analyzed by X-ray diffraction experiments.
Form I+Form II were suspended in solvent and stirred at 80° C. for 14 hours. The sample was filtered and analyzed by X-ray diffraction experiments. […] Slurry in 2-propanol at 80° C. is an atypical experiment because if we consider the boiling point of the solvent, it could be defined as a combination between a slurry and precipitation experiment. Form I was obtained during the precipitation from supersaturated solution by 2-propanol. However the high temperature and the reflux produce the energetic conditions needed by the stable crystal form (Form II) to convert to the metastable crystal form (Form I).

[5] = Stability tests on bupropion hydrobromide polymorphs in humidity chamber (XRD pattern); conditions: 28 days; 25° C.; 75% R.H.
[6] = Release of bupropion base from the salt; conditions: 150 mg of the salt tested
Method: It was previously observed that when 150 mg of bupropion HCl was tested for its release of bupropion, the base value that was released was 130 mg. However, when 150 mg of bupropion HBr was tested, the base value released was only 112 mg. Thus, the amount of bupropion HBr had to be increased in order to increase the base value from 112 mg to 130 mg, which was the target.

[7] = room temperature, 1 week (7 days)

Br.CC(NC(C)(C)C)C(=O)c1cccc(Cl)c1 (single isomer, unassigned) [Form II]
Thermodynamic stability of the crystal form as shown by slurry experiments [1]: thermodynamically stable crystal form; also recorded: thermodynamic stable form | XRD pattern / crystal form after storage ([2]; 7 days): did not show modification | XRD pattern / crystal form after storage ([2]; 30 days): did not show modification | TGA (mass change) [3]: −93.35% | Slurry result in 2-propanol ([4]; mixture Form I+Form II, 80° C., 14 hours): converted to Form I | Slurry result in 2-propanol [4, 7]: Form II was obtained

Br.CC(NC(C)(C)C)C(=O)c1cccc(Cl)c1 (single isomer, unassigned) [Form VI]
XRD pattern / crystal form after storage ([2]; 30 days): converted into a mixture of Form I+Form II | TGA (mass change) [3]: −97.68% | DSC (onset ° C.) [3]: 235 °C

Br.CC(NC(C)(C)C)C(=O)c1cccc(Cl)c1 (centres unmarked) [Form I + Form II]
Slurry Result ([1]; 1,2-Dimethoxy Ethane): Form II | Slurry Result ([1]; 1,4-Dioxane): Form V | Slurry Result ([1]; Acetone): Form II | Slurry Result ([1]; Diethyl ether): Form II | Slurry Result ([1]; Ethyl acetate): Form II | Slurry Result ([1]; n-Hexan): Form II | Slurry Result ([1]; p-Xylene): Form II | Slurry result in 2-propanol ([4]; 50° C., 1 week (7 days)): Form II was obtained | Slurry result in 2-propanol [4, 7]: Form II was obtained

Br.CC(NC(C)(C)C)C(=O)c1cccc(Cl)c1 (centres unmarked) [Form II + Form III]
Slurry Result ([1]; 1,2-Dimethoxy Ethane): Form II | Slurry Result ([1]; 1,4-Dioxane): Form V | Slurry Result ([1]; Acetone): Form II | Slurry Result ([1]; Diethyl ether): Form II | Slurry Result ([1]; Ethyl acetate): Form II | Slurry Result ([1]; n-Hexan): Form II | Slurry Result ([1]; p-Xylene): Form II

Br.CC(NC(C)(C)C)C(=O)c1cccc(Cl)c1 (centres unmarked) [Form III]
XRD pattern / crystal form after storage ([2]; 30 days): converted into Form I

Br.CC(NC(C)(C)C)C(=O)c1cccc(Cl)c1 (centres unmarked) [Form IV]
XRD pattern / crystal form after storage ([2]; 30 days): converted into Form I

Br.CC(NC(C)(C)C)C(=O)c1cccc(Cl)c1 (centres unmarked) [Form VII]
XRD pattern / crystal form after storage [5]: stable form | DSC (onset ° C.) [3]: 268.7 °C

Br.CC(NC(C)(C)C)C(=O)c1cccc(Cl)c1 (centres unmarked) [Form V]
XRD pattern / crystal form after storage ([2]; 30 days): converted into Form I | DSC (onset ° C.) [3]: 237.85 °C

CC(NC(C)(C)C)C(=O)c1cccc(Cl)c1 (centres unmarked) [bupropion HCl, reference compound]
base value that was released [6]: 130 mg
